Data set [1] has as its system IL-2 stimulated STAT5 phosphorylation in Tall-1 human T cell line (JAK1/3). The experiment in a line: Inhibition of IL-2 stimulated pSTAT5 in Tall-1 T cells. To be noted: IL-2 300 ng/mL, AlphaLisa, read-out: Tall-1 IL2 pSTAT5 (pIC50) (converted). It counts as cell-based. On the procedure: Assay 2: Inhibition of IL-2 Stimulated pSTAT5 in Tall-1 T Cells
The potency of test compounds for inhibition of interleukin-2 (IL-2) stimulated STATS phosphorylation was measured in the Tall-1 human T cell line (DSMZ) using AlphaLisa. Because IL-2 signals through JAK1/3, this assay provides a measure of JAK1/3 cellular potency.
Phosphorylated STAT5 was measured via the AlphaLISA SureFire Ultra pSTAT5 (Tyr694/699) kit (PerkinElmer). Human T cells from the Tall-1 cell line were cultured in a 37° C., 5% CO2 humidified incubator in RPMI (Life Technologies) supplemented with 15% Heat Inactivated Fetal Bovine Serum (FBS, Life Technologies), 2 mM Glutamax (Life Technologies), 25 mM HEPES (Life Technologies) and 1× Pen/Strep (Life Technologies). Compounds were serially diluted in DMSO and dispensed acoustically to empty wells. Assay media (phenol red-free DMEM (Life Technologies) supplemented with 10% FBS (ATCC)) was dispensed (4 μL/well) and plates shaken at 900 rpm for 10 mins. Cells were seeded at 45,000 cells/well in assay media (4 μL/well), and incubated at 37° C., 5% CO2 for 1 hour, followed by the addition of IL-2 (R&D Systems; final concentration 300 ng/mL) in pre-warmed assay media (4 μL) for 30 minutes. After cytokine stimulation, cells were lysed with 6 ul of 3× AlphaLisa Lysis Buffer (PerkinElmer) containing 1× PhosStop and Complete tablets (Roche). The lysate was shaken at 900 rpm for 10 minutes at room temperature (RT). Phosphorylated STAT5 was measured via the pSTAT5 AlphaLisa kit (PerkinElmer). Freshly prepared acceptor bead mixture was dispensed onto lysate (5 μL) under green filtered <100 lux light. Plates were shaken at 900 rpm for 2 mins, briefly spun down, and incubated for 2 hrs at RT in the dark. Donor beads were dispensed (5 μL) under green filtered <100 lux light. Plates were shaken at 900 rpm for 2 minutes, briefly spun down, and incubated overnight at RT in the dark. Luminescence was measured with excitation at 689 nm and emission at 570 nm using an EnVision plate r reader (PerkinElmer) under green filtered <100 lux light.
To determine the inhibitory potency of test compounds in response to IL-2, the average emission intensity of beads bound to pSTAT5 was measured in a human T cell line. IC50 values were determined from analysis of the inhibition curves of signal intensity versus compound concentration. Data are expressed as pIC50 (negative decadic logarithm IC50) values (mean±standard deviation).
On the technique in general: Alpha assays give light when donor and acceptor beads are brought close together.

Data set [2] can be described thus: physchem. In kind it is physicochemical. To be noted: thermodynamic from solid. On the procedure:
Assay 5: Solubility Assay in Organic Excipients The purpose of this assay was to quantify the solubility of test compounds in different organic excipients such as diisopropyl adipate, medium chain triglycerides (MCT), propylene glycol, and polyethylene glycol. The assay required 80 μL of 100 mM DMSO test compound solution per desired excipient in addition to 40 μL required to make a test standard. For example, to test a compound in all five […]) of 100 mM DMSO compound stock solution was required. The standard was created by diluting 40 μL of 100 mM DMSO compound stock solution into 160 μL of methanol and was shaken for five minutes to ensure solution uniformity. […] This 20,000 μM solution was run on an Agilent 1260 LC-MS system by injecting 0.2 μL in order to obtain the peak area. For the test solutions, 80 μL of 100 mM DMSO compound stock solution, per excipient, were dried down into a powder overnight. Once in powder form, 400 μL of the desired excipient was added to the powder and allowed to shake vigorously for four hours. The maximum theoretical concentration for this sample solution was 20,000 μM. After four hours of shaking, the samples were centrifuged for 10 minutes at 3,000 RPM before injecting 0.2 μL on the same Agilent 1260 LC-MS system to obtain the peak area. […] In Table 3 below, A represents a value above 10, B represents a value between 5 and 10, C represents a value below 5.

Data set [3] is described as follows: physchem. In kind it is physicochemical. To be noted: pH 7.4, aqueous buffer, thermodynamic from solid. How it is done:
Assay 4: Aqueous Solubility Assay The purpose of this assay was to quantify the solubility of test compounds in pH 4 and pH 7.4 PBS buffers. The assay required 40 μL of 10 mM DMSO test compound solution per desired buffer in addition to 20 μL required to make a test standard. For example, to test a compound in both buffers, 100 μL (2*40 μL+20 μL) of 10 mM DMSO compound stock solution was required. The standard was created by diluting 20 μL of 10 mM DMSO compound stock solution into 180 μL of methanol and was shaken for five minutes to ensure solution uniformity. […] This 1,000 μM solution was run on an Agilent 1260 LC-MS system by injecting 2 μL in order to obtain the peak area. For the test solutions, 40 μL of 10 mM DMSO compound stock solution, per PBS buffer condition, were dried down into a powder overnight. Once in powder form, 400 μL of the desired PBS buffer was added to the powder and allowed to shake vigorously for four hours. The maximum theoretical concentration for this sample solution was 1,000 μM. After four hours of shaking, the samples were centrifuged for 10 minutes at 3,000 RPM before injecting 2 μL on the same Agilent 1260 LC-MS system to obtain the peak area. […]

Setting [4] is: oil or lipid, Solubility in MCT.
[5] abbreviates: organic solvent or mixture, Solubility in Diisopropyl adipate.
[6] abbreviates: organic solvent or mixture, Solubility in PEG400.
The mark [7] stands for this setting: organic solvent or mixture, Solubility in Propylene glycol.
Where [8] appears, read: organic solvent or mixture, Solubility in Transcutol.

Converted amounts (≈) assume the structure as drawn. Some results are limits rather than exact numbers.

The term solubility denotes the dissolved amount per volume that the medium holds.

Consider `CCCC(=O)OCc1nc(N(C)[C@@H]2C[C@H]3CCC[C@@H](C2)N3S(=O)(=O)CC)nc(Nc2cc(C)[nH]n2)c1F` [Compound 3, (2-(((1R,3s,5S)-9-(ethylsulfonyl)-9-azabicyclo[3.3.1]nonan-3-yl)(methyl)amino)-5-fluoro-6-((5-methyl-1H-pyrazol-3-yl)amino)pyrimidin-4-yl)methyl butyrate], for which the IC50 in data set [1] was ≤ 10 nM. Further, the solubility at 4 h in data set [2] (setting [4]) is < 5000 µg/mL; in data set [2] (setting [5]) it was > 10000 µg/mL; in data set [2] (setting [6]) it was > 10000 µg/mL; in data set [2] (setting [7]) it was > 10000 µg/mL; in data set [2] (setting [8]), > 10000 µg/mL; in data set [3], 10 to 50 µM (≈ 5.38 to 26.9 µg/mL).
For the molecule `CCCCCCC(=O)OCc1nc(N(C)[C@@H]2C[C@H]3CCC[C@@H](C2)N3S(=O)(=O)CC)nc(Nc2cc(C)[nH]n2)c1F` [Compound 5, (2-(((1R,3s,5S)-9-(ethylsulfonyl)-9-azabicyclo[3.3.1]nonan-3-yl)(methyl)amino)-5-fluoro-6-((5-methyl-1H-pyrazol-3-yl)amino)pyrimidin-4-yl)methyl heptanoate], in data set [1], the IC50 is ≤ 10 nM. The solubility at 4 h in data set [2] (setting [4]) was < 5000 µg/mL; in data set [2] (setting [5]), > 10000 µg/mL; in data set [2] (setting [6]), > 10000 µg/mL; in data set [2] (setting [7]) it was 5000 to 10000 µg/mL (≈ 8.62 to 17.2 mM); in data set [2] (setting [8]) it was > 10000 µg/mL; in data set [3] it was 10 to 50 µM (≈ 5.8 to 29 µg/mL).
With `CCCCC(=O)OCc1nc(N(C)[C@@H]2C[C@H]3CCC[C@@H](C2)N3S(=O)(=O)CC)nc(Nc2cc(C)[nH]n2)c1F` [Compound 4, (2-(((1R,3s,5S)-9-(ethylsulfonyl)-9-azabicyclo[3.3.1]nonan-3-yl)(methyl)amino)-5-fluoro-6-((5-methyl-1H-pyrazol-3-yl)amino)pyrimidin-4-yl)methyl pentanoate], in data set [1], the IC50 is ≤ 10 nM. Besides, the solubility at 4 h in data set [2] (setting [4]) is < 5000 µg/mL; in data set [2] (setting [5]) it was > 10000 µg/mL; in data set [2] (setting [6]), > 10000 µg/mL; in data set [2] (setting [7]), < 5000 µg/mL; in data set [2] (setting [8]), > 10000 µg/mL; in data set [3] it was 50 to 100 µM (≈ 27.6 to 55.2 µg/mL).
Take `CCS(=O)(=O)N1[C@@H]2CCC[C@H]1C[C@H](N(C)c1nc(COC(=O)OC(C)C)c(F)c(Nc3cc(C)[nH]n3)n1)C2` [Compound 8, (2-(((1R,3s,5S)-9-(ethylsulfonyl)-9-azabicyclo[3.3.1]nonan-3-yl)(methyl)amino)-5-fluoro-6-((5-methyl-1H-pyrazol-3-yl)amino)pyrimidin-4-yl)methyl isopropyl carbonate]: the IC50 in data set [1] was ≤ 10 nM. In addition, the solubility at 4 h is < 5000 µg/mL in data set [2] (setting [4]); > 10000 µg/mL in data set [2] (setting [5]); > 10000 µg/mL in data set [2] (setting [6]); < 5000 µg/mL in data set [2] (setting [7]); 50 to 100 µM (≈ 27.7 to 55.4 µg/mL) in data set [3].
In the case of `CCS(=O)(=O)N1[C@@H]2CCC[C@H]1C[C@H](N(C)c1nc(CO)c(F)c(Nc3cc(C)[nH]n3)n1)C2` [Compound M, (2-(((1R,3s,5S)-9-(ethylsulfonyl)-9-azabicyclo[3.3.1]nonan-3-yl)(methyl)amino)-5-fluoro-6-((5-methyl-1H-pyrazol-3-yl)amino)pyrimidin-4-yl)methanol], the IC50 in data set [1] was ≤ 10 nM. The solubility at 4 h in data set [2] (setting [4]) was < 5000 µg/mL; in data set [2] (setting [5]) it was < 5000 µg/mL; in data set [2] (setting [6]), < 5000 µg/mL; in data set [2] (setting [7]), < 5000 µg/mL; in data set [2] (setting [8]) it was > 10000 µg/mL; in data set [3] it was 10 to 50 µM (≈ 4.68 to 23.4 µg/mL).
Consider `CCC(=O)OCc1nc(N(C)[C@@H]2C[C@H]3CCC[C@@H](C2)N3S(=O)(=O)CC)nc(Nc2cc(C)[nH]n2)c1F` [Compound 2, (2-(((1R,3s,5S)-9-(ethylsulfonyl)-9-azabicyclo[3.3.1]nonan-3-yl)(methyl)amino)-5-fluoro-6-((5-methyl-1H-pyrazol-3-yl)amino)pyrimidin-4-yl)methyl propionate], for which the IC50 in data set [1] is ≤ 10 nM. Besides, the solubility at 4 h in data set [2] (setting [4]) was < 5000 µg/mL; in data set [2] (setting [5]), > 10000 µg/mL; in data set [2] (setting [6]), > 10000 µg/mL; in data set [2] (setting [7]), > 10000 µg/mL; in data set [2] (setting [8]), > 10000 µg/mL; in data set [3], 10 to 50 µM (≈ 5.24 to 26.2 µg/mL).
In the case of `CCS(=O)(=O)N1[C@@H]2CCC[C@H]1C[C@H](N(C)c1nc(COC(=O)C3CCOCC3)c(F)c(Nc3cc(C)[nH]n3)n1)C2` [Compound 7, (2-(((1R,3s,5S)-9-(ethylsulfonyl)-9-azabicyclo[3.3.1]nonan-3-yl)(methyl)amino)-5-fluoro-6-((5-methyl-1H-pyrazol-3-yl)amino)pyrimidin-4-yl)methyl tetrahydro-2H-pyran-4-carboxylate], the IC50 in data set [1] is ≤ 10 nM. For the same molecule, the solubility at 4 h in data set [2] (setting [4]) is < 5000 µg/mL; in data set [2] (setting [5]), > 10000 µg/mL; in data set [2] (setting [6]) it was > 10000 µg/mL; in data set [2] (setting [7]) it was > 10000 µg/mL; in data set [3], 100 to 1000 µM (≈ 58 to 580 µg/mL).
Regarding `CCS(=O)(=O)N1[C@@H]2CCC[C@H]1C[C@H](N(C)c1nc(COC(=O)OC3CCCCC3)c(F)c(Nc3cc(C)[nH]n3)n1)C2` [Compound 6, cyclohexyl ((2-(((1R,3s,5S)-9-(ethylsulfonyl)-9-azabicyclo[3.3.1]nonan-3-yl)(methyl)amino)-5-fluoro-6-((5-methyl-1H-pyrazol-3-yl)amino)pyrimidin-4-yl)methyl) carbonate], the IC50 in data set [1] is 10 to 31.6 nM. The solubility at 4 h in data set [2] (setting [4]) is < 5000 µg/mL; in data set [2] (setting [5]), > 10000 µg/mL; in data set [2] (setting [6]), 5000 to 10000 µg/mL (≈ 8.42 to 16.8 mM); in data set [2] (setting [7]) it was 5000 to 10000 µg/mL (≈ 8.42 to 16.8 mM); in data set [2] (setting [8]), > 10000 µg/mL; in data set [3], 10 to 50 µM (≈ 5.94 to 29.7 µg/mL).
For the molecule `CCS(=O)(=O)N1[C@@H]2CCC[C@H]1C[C@H](N(C)c1nc(COC(=O)OC3CCOCC3)c(F)c(Nc3cc(C)[nH]n3)n1)C2` [Compound 9, (2-(((1R,3s,5S)-9-(ethylsulfonyl)-9-azabicyclo[3.3.1]nonan-3-yl)(methyl)amino)-5-fluoro-6-((5-methyl-1H-pyrazol-3-yl)amino)pyrimidin-4-yl)methyl (tetrahydro-2H-pyran-4-yl) carbonate], in data set [1], the IC50 is ≤ 10 nM. Further, the solubility at 4 h in data set [2] (setting [4]) was < 5000 µg/mL; in data set [2] (setting [5]) it was > 10000 µg/mL; in data set [2] (setting [6]), > 10000 µg/mL; in data set [2] (setting [7]), > 10000 µg/mL; in data set [3], 100 to 1000 µM (≈ 59.6 to 596 µg/mL).

Values taken from patent US11845747B2, “Ester and carbonate pyrimidine compounds as JAK kinase inhibitors” (priority 2019, dated 2023).
